According to PubChem BioAssay (NCI):
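Briefly, cells in 96-well plates were exposed to five compound concentrations for 48 h, and endpoints were estimated by linear interpolation. The concentration for full growth arrest is given as TGI.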

Legend:
Assay in all cases: NCI-60 cell line screen, 48 h
[1] = tested on: 786-0 renal
[2] = tested on: A549 NSCLC
[3] = tested on: CCRF-CEM leukemia
[4] = tested on: COLO 205 colon
[5] = tested on: EKVX NSCLC
[6] = tested on: HCT-15 colon
[7] = tested on: HL-60(TB) leukemia
[8] = tested on: HOP-92 NSCLC
[9] = tested on: KM12 colon
[10] = tested on: M14 melanoma
[11] = tested on: MDA-MB-231 breast
[12] = tested on: MDA-MB-435
[13] = tested on: OVCAR-4 ovarian
[14] = tested on: RPMI-8226 leukemia
[15] = tested on: SF-295 CNS
[16] = tested on: SF-539 CNS
[17] = tested on: SK-OV-3 ovarian
[18] = tested on: SNB-19 CNS
[19] = tested on: SW-620 colon
[20] = tested on: UO-31 renal

Structure (SMILES) | TGI [1] | TGI [2] | TGI [3] | TGI [4] | TGI [5] | TGI [6] | TGI [7] | TGI [8] | TGI [9] | TGI [10] | TGI [11] | TGI [12] | TGI [13] | TGI [14] | TGI [15] | TGI [16] | TGI [17] | TGI [18] | TGI [19] | TGI [20]
COc1cc(C2SCC(=O)N2c2ccc(Cl)cc2)cc(I)c1O (stereo not given) | > 100 µM | > 100 µM | > 100 µM | > 23.7 µM | > 100 µM | > 100 µM | > 100 µM | > 100 µM | > 100 µM | > 100 µM | > 100 µM | > 100 µM | > 67.5 µM | > 100 µM | > 100 µM | > 100 µM | > 100 µM | > 100 µM | > 100 µM | > 100 µM
COc1ccc(CCc2ccc(O)c(C(=O)O)c2)cc1OC | > 100 µM | > 100 µM | > 100 µM | > 100 µM | > 100 µM | > 100 µM | > 100 µM | > 100 µM | > 100 µM | > 100 µM | > 100 µM | > 100 µM | > 100 µM | > 100 µM | > 100 µM | > 100 µM | > 100 µM | > 100 µM | – | > 100 µM
O=C(N/N=C\c1ccc([N+](=O)[O-])cc1)Nc1cccc2ccccc12 | 29.1 µM | > 100 µM | > 100 µM | > 100 µM | > 100 µM | > 100 µM | > 31.6 µM | 16.7 µM | > 100 µM | > 100 µM | 33.7 µM | > 100 µM | > 100 µM | > 100 µM | 22.6 µM | 33 µM | 39 µM | 29.4 µM | > 100 µM | > 79.8 µM
O=C(N/N=C\c1ccc([N+](=O)[O-])cc1)c1ccccc1Nc1ccccc1C(=O)N/N=C/c1ccc([N+](=O)[O-])cc1 | > 100 µM | > 100 µM | > 100 µM | > 100 µM | > 100 µM | > 100 µM | > 100 µM | > 100 µM | > 100 µM | 79.7 µM | 95.1 µM | > 100 µM | > 100 µM | > 100 µM | > 100 µM | – | > 100 µM | > 100 µM | > 100 µM | > 100 µM
CC(=O)O[C@H]1CC[C@@]2(C)C(=CC[C@@H]3[C@@H]2CC[C@]2(C)c4c(cc(C#N)c(=N)n4C(C)=O)C[C@@H]32)C1 | 58.3 µM | 64.8 µM | 23.2 µM | 35.7 µM | 43.2 µM | 29.4 µM | 36 µM | 59.8 µM | 32.8 µM | 32.5 µM | 77.9 µM | 38.5 µM | 39.4 µM | – | 29.6 µM | – | 34.5 µM | 89 µM | 47.5 µM | 52.8 µM
COc1ccc(C2SCC(=O)N2NC(=O)C(C)Oc2ccccc2Cl)cc1 (stereo not given) | > 100 µM | > 100 µM | 79.6 µM | 64.4 µM | > 100 µM | > 100 µM | 35.2 µM | 77.4 µM | > 100 µM | > 100 µM | > 100 µM | > 100 µM | > 100 µM | > 100 µM | > 100 µM | > 100 µM | – | > 100 µM | > 100 µM | > 100 µM
O=c1c(O)c(-c2cc(O)c(O)cc2O)oc2cc(O)c(C3OC(CO)C(O)C(O)C3O)c(O)c12 (stereo not given) | > 100 µM | > 100 µM | – | – | > 100 µM | > 100 µM | > 100 µM | > 100 µM | > 100 µM | > 100 µM | > 100 µM | > 100 µM | > 100 µM | > 100 µM | > 100 µM | > 100 µM | > 100 µM | > 100 µM | > 100 µM | > 100 µM
O=CC1OC(=O)c2cc(O)c(O)c(O)c2-c2c(cc(O)c(O)c2O)C(=O)OC1C(O)C(O)CO (stereo not given) | > 100 µM | > 100 µM | 85.5 µM | > 100 µM | > 100 µM | > 100 µM | > 100 µM | > 100 µM | > 100 µM | > 100 µM | 35.8 µM | 32.9 µM | 37.8 µM | 72.4 µM | 67.9 µM | > 100 µM | – | > 100 µM | 32.9 µM | > 100 µM
O=C1OC(C2OC(=O)c3cc(O)c(O)c(O)c3-c3c(O)c(O)c4oc(=O)c5c(c(O)c(O)c6oc(=O)c3c4c65)-c3c(cc(O)c(O)c3O)C(=O)OCC2O)C2OC(=O)c3c(c(O)c(O)c(O)c3[C@H]2O)-c2c1cc(O)c(O)c2O (stereo not given in full) | 44.9 µM | > 100 µM | 37.6 µM | 36.6 µM | 41 µM | 33.3 µM | 38.8 µM | 87.1 µM | 63 µM | 39.5 µM | 33.7 µM | 42.3 µM | 46 µM | 76.9 µM | 68.5 µM | – | > 100 µM | > 100 µM | 48.9 µM | 81.9 µM
O=c1[nH]c(Nc2cccc(Br)c2)nc2nc[nH]c12 | > 100 µM | > 100 µM | > 100 µM | > 100 µM | > 100 µM | > 100 µM | > 100 µM | > 100 µM | > 100 µM | > 100 µM | > 100 µM | > 100 µM | > 100 µM | > 100 µM | > 100 µM | – | > 100 µM | > 100 µM | > 100 µM | > 100 µM
CSc1nc(O)c(/C=C2\C=Nc3ccccc32)[nH]1 | > 100 µM | > 100 µM | > 100 µM | > 100 µM | – | > 100 µM | 94.1 µM | > 100 µM | – | > 100 µM | > 100 µM | > 100 µM | > 100 µM | > 100 µM | – | > 100 µM | > 100 µM | > 100 µM | > 100 µM | > 100 µM
Cc1cc(O)c(/C=N/c2nc(-c3cccc([N+](=O)[O-])c3)cs2)c(=O)o1 | > 100 µM | > 100 µM | – | > 100 µM | > 100 µM | > 100 µM | 47.2 µM | > 100 µM | > 100 µM | > 100 µM | > 100 µM | > 100 µM | > 100 µM | – | > 100 µM | > 100 µM | > 100 µM | > 100 µM | > 100 µM | > 100 µM
